Data on 22 compounds can be found in patent US20250320193A1, “OXOISOINDOLINYL SUBSTITUTED PIPERIDINEDIONE DERIVATIVE AND USE THEREOF” (GLUETACS THERAPEUTICS (SHANGHAI) CO., LTD., priority 2022, published 2025).

Where only a bound is given, the exact number is not on record here.

Sequence of human Cereblon WT GST-tagged protein (Q96SW2 whole entry): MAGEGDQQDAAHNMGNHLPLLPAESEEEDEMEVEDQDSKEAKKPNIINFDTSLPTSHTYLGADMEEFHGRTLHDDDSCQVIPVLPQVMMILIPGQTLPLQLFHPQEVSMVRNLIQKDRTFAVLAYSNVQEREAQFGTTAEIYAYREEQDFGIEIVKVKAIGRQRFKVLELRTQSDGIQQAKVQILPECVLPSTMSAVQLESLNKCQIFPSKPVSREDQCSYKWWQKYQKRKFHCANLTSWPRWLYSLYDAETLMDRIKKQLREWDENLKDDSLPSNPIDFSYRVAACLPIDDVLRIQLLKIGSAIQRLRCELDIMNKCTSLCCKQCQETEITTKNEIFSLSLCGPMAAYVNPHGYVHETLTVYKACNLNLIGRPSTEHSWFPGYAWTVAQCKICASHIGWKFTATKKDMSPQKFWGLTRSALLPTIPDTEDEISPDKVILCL
Sequence of IKZF1 (Q13422 whole entry): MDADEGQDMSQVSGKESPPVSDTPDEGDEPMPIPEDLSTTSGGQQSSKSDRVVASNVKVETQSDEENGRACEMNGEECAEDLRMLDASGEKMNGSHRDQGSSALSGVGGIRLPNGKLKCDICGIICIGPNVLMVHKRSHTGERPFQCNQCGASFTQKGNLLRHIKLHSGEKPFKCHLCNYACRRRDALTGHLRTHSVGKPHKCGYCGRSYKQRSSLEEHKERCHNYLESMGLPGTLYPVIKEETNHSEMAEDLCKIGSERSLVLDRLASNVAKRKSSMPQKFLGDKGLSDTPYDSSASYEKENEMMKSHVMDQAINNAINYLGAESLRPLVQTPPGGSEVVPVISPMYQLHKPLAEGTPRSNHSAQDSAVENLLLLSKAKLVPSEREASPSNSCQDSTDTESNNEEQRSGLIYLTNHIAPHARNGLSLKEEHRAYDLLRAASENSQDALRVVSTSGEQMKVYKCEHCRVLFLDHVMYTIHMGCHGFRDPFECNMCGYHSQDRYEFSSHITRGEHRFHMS
Sequence of IKZF1 (Q96SW2 whole entry): as the sequence (Q96SW2 whole entry) above
Sequence of IKZF1 (Q16531 whole entry partner): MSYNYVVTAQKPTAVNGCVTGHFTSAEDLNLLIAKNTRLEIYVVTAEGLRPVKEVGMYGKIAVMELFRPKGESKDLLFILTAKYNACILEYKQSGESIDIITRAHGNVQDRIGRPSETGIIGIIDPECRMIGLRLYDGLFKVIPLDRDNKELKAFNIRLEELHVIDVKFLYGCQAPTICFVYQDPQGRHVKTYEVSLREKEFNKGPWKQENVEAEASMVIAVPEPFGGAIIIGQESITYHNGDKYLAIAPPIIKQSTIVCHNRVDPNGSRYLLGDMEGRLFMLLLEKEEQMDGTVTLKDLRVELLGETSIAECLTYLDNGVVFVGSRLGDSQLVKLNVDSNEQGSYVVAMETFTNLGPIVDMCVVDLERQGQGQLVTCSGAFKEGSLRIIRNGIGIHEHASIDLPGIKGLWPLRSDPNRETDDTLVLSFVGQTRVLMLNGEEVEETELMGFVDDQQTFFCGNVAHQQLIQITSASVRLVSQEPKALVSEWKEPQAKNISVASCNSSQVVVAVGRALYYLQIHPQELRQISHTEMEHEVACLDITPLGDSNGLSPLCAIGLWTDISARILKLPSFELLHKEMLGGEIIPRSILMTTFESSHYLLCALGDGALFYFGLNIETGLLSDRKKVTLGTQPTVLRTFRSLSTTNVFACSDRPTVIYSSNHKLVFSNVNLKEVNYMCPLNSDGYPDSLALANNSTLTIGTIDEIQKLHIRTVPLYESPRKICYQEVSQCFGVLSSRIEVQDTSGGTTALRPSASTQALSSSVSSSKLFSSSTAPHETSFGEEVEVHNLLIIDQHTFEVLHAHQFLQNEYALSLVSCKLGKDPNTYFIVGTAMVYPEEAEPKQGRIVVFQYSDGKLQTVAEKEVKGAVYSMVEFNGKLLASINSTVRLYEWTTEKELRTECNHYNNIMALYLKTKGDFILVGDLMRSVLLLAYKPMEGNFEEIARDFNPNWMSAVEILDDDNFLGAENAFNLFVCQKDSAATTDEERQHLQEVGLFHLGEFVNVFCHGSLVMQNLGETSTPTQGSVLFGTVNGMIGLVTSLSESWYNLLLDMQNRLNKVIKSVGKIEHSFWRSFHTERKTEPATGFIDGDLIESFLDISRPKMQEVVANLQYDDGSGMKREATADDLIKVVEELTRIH

In one experiment the target is human Cereblon WT GST-tagged protein (Homo sapiens (Human), UniProt Q96SW2). As to the kind of experiment: CRBN-binding affinity, HTRF (CEREBLON BINDING kit, CISBIO). Conditions: HTRF inhibitory activity. How it is done:
I. Determination of CRBN-binding affinity of compounds of the present disclosure:
The CEREBLON BINDING kits (specification: 10,000 tests; product number: Catalog #64BDCRBNPEH; CISBIO company) was used to determine the CRBN binding ability of the compounds to be tested through a HTRF method (homogeneous time-resolved fluorescence). The specific methods are as follows: • 1. […] Then, 2.5 μL of human Cereblon WT GST-tagged protein solution was added to each well. Finally, 5 μL of the thoroughly mixed Thalidomide-Red reagent and GST Eu antibody working solution were added to each of the aforementioned wells. […] The blank control wells were sequentially added with 2.5 μL of diluent #9 (1X) solution, 2.5 μL of PROTAC binding buffer, and 5 μL of thoroughly mixed Thalidomide-Red reagent and GST Eu antibody working solution. • 4.
The corresponding CRBN binding inhibition rate was calculated using the following method: […]
OD 620 nmcompound is the absorbance value of each well of the compounds to be tested of the present disclosure at an emission wavelength of 620 nm. […] OD 620 nmcontrol is the absorbance value of the blank control well at an emission wavelength of 620 nm. […] OD 620 nmStd0 is the absorbance value of the solvent control well at an emission wavelength of 620 nm.
For orientation: IC50 means the concentration needed to halve the response being measured. Low values mean greater potency in that assay, high ones weaker potency in that assay. Consider `O=C1CCC(N2Cc3cc(CN4CCC5(CC4)CCN(C(c4ccccc4)c4ccccc4)CC5)c(F)cc3C2=O)C(=O)N1` (stereo not drawn) [GT-06025, 3-(5-((9-benzhydryl-3,9-diazaspiro[5.5]undecan-3-yl)methyl)-6-fluoro-1-oxoisoindolin-2-yl)piperidine-2,6-dione], for which the half-inhibitory concentration (IC50) was in the range of 500 to 1000 nM.

In turn, `O=C1CCC(N2Cc3cc(CN4CCC5(CC4)CCN(C(c4ccccc4)c4ccccc4)CC5)cc(F)c3C2=O)C(=O)N1` (stereo not drawn) [GT-06026, 3-(5-((9-benzhydryl-3,9-diazaspiro[5.5]undecan-3-yl)methyl)-7-fluoro-1-oxoisoindolin-2-yl)piperidine-2,6-dione] showed an IC50 of 500 to 1000 nM.

`O=C1CCC(N2Cc3cc(C(=O)N4C5CCC4CN(C(c4ccccc4)c4ccccc4)C5)cc(F)c3C2=O)C(=O)N1` (stereo not drawn) [GT-06055, 3-(5-(3-benzhydryl-3,8-diazabicyclo[3.2.1]octane-8-carbonyl)-7-fluoro-1-oxoisoindolin-2-yl)piperidine-2,6-dione] had a half-inhibitory concentration (IC50) of less than 500 nM.

The compound `O=C1CCC(N2Cc3cc(C(=O)N4CC5CCC4CN5C(c4ccccc4)c4ccccc4)ccc3C2=O)C(=O)N1` (stereo not drawn) [GT-06056, 3-(5-(5-benzhydryl-2,5-diazabicyclo[2.2.2]octane-2-carbonyl)-1-oxoisoindolin-2-yl)piperidine-2,6-dione] returned an IC50 of less than 500 nM.

In turn, `O=C1CCC(N2Cc3cc(C(=O)N4CC5CCC4CN5C(c4ccccc4)c4ccccc4)cc(F)c3C2=O)C(=O)N1` (stereo not drawn) [GT-06057, 3-(5-(5-benzhydryl-2,5-diazabicyclo[2.2.2]octane-2-carbonyl)-7-fluoro-1-oxoisoindolin-2-yl)piperidine-2,6-dione] registered a concentration for half-maximal inhibition (IC50) of less than 500 nM.

Take `CC1CN(C(=O)c2ccc3c(c2)CN(C2CCC(=O)NC2=O)C3=O)CC(C)N1C(c1ccccc1)c1ccccc1` (stereo not drawn) [GT-06059, 3-(5-(4-benzhydryl-3,5-dimethylpiperazine-1-carbonyl)-1-oxoisoindolin-2-yl)piperidine-2,6-dione]: the concentration for half-maximal inhibition (IC50) is less than 500 nM.

As to `CC1CN(C(=O)c2cc(F)c3c(c2)CN(C2CCC(=O)NC2=O)C3=O)CC(C)N1C(c1ccccc1)c1ccccc1` (stereo not drawn) [GT-06060, 3-(5-(4-benzhydryl-3,5-dimethylpiperazine-1-carbonyl)-7-fluoro-1-oxoisoindolin-2-yl)piperidine-2,6-dione], the IC50 was 500 to 1000 nM.

`CC1(C)CN(C(=O)c2cc(F)c3c(c2)CN(C2CCC(=O)NC2=O)C3=O)CCN1C(c1ccccc1)c1ccccc1` (stereo not drawn) [GT-06062, 3-(5-(4-benzhydryl-3,3-dimethylpiperazine-1-carbonyl)-7-fluoro-1-oxoisoindolin-2-yl)piperidine-2,6-dione]: the IC50 was 500 to 1000 nM.

In turn, `O=C1CCC(N2Cc3cc(C(=O)N4CCN(C5c6cc(Cl)ccc6-c6ccc(Cl)cc65)CC4)ccc3C2=O)C(=O)N1` (stereo not drawn) [GT-06069, 3-(5-(4-(2,7-dichloro-9H-fluoren-9-yl)piperazine-1-carbonyl)-1-oxoisoindolin-2-yl)piperidine-2,6-dione] registered a half-maximal inhibitory concentration (IC50) of 500 to 1000 nM.

The compound `O=C1CCC(N2Cc3c(ccc(C4=CCN(C(c5ccccc5)c5ccccc5)CC4)c3F)C2=O)C(=O)N1` (stereo not drawn) [GT-06072, 3-(5-(1-benzhydryl-1,2,3,6-tetrahydropyridin-4-yl)-4-fluoro-1-oxoisoindolin-2-yl)piperidine-2,6-dione] came in with an IC50 of less than 500 nM.

In turn, `O=C1CCC(N2Cc3cc(CN4CCN(C(c5ccccc5)c5ccccc5)CC4C(F)(F)F)cc(F)c3C2=O)C(=O)N1` (stereo not drawn) [GT-06098, 3-(5-((4-benzhydryl-2-(trifluoromethyl)piperazin-1-yl)methyl)-7-fluoro-1-oxoisoindolin-2-yl)piperidine-2,6-dione] showed an IC50 of less than 500 nM.

In the case of `O=C1CCC(N2Cc3cc(CN4CCN(C(c5ccccc5)c5cccnc5)CC4)cc(F)c3C2=O)C(=O)N1` (stereo not drawn) [GT-06111, 3-(7-fluoro-1-oxo-5-((4-(phenyl(pyridin-3-yl)methyl)piperazin-1-yl)methyl)isoindolin-2-yl)piperidine-2,6-dione], the IC50 was less than 500 nM.

The compound `O=C1CCC(N2Cc3c(CN4CCN(C(c5ccccc5)c5cccnc5)CC4)cccc3C2=O)C(=O)N1` (stereo not drawn) [GT-06113, 3-(1-oxo-4-((4-(phenyl(pyridin-3-yl)methyl)piperazin-1-yl)methyl)isoindolin-2-yl)piperidine-2,6-dione] displayed an IC50 of 500 to 1000 nM.

`O=C1CCC(N2Cc3ccc(CN4CCN(C(c5cccc(F)c5)c5cccc(F)c5)CC4)cc3C2=O)C(=O)N1` (stereo not drawn) [GT-06116, 3-(6-((4-(bis(3-fluorophenyl)methyl)piperazin-1-yl)methyl)-1-oxoisoindolin-2-yl)piperidine-2,6-dione]: the IC50 was in the range of 500 to 1000 nM.

The compound `O=C1CCC(N2Cc3cc(CN4CCN(C(c5ccccc5)c5ccncc5)CC4)cc(F)c3C2=O)C(=O)N1` (stereo not drawn) [GT-06135, 3-(7-fluoro-1-oxo-5-((4-(phenyl(pyridin-4-yl)methyl)piperazin-1-yl)methyl)isoindolin-2-yl)piperidine-2,6-dione] returned a 50% inhibitory concentration (IC50) of less than 500 nM.

With `O=C1CCC(N2Cc3c(ccc(C4CCN(C(c5ccccc5)c5ccccc5)CC4)c3F)C2=O)C(=O)N1` (stereo not drawn) [GT-06136, 3-(5-(1-benzhydrylpiperidin-4-yl)-4-fluoro-1-oxoisoindolin-2-yl)piperidine-2,6-dione], the half-inhibitory concentration (IC50) was less than 500 nM.

`O=C1CCC(N2Cc3cc(C(=O)N4CCN(C(c5ccccc5)c5ccncc5)CC4)ccc3C2=O)C(=O)N1` (stereo not drawn) [GT-06144, 3-(1-oxo-5-(4-(phenyl(pyridin-4-yl)methyl)piperazine-1-carbonyl)isoindolin-2-yl)piperidine-2,6-dione] gave an IC50 of 500 to 1000 nM.

As for `O=C1CCC(N2Cc3ccc(C(=O)N4CCN(C(c5cccc(F)c5)c5cccc(F)c5)CC4)cc3C2=O)C(=O)N1` (stereo not drawn) [GT-06149, 3-(6-(4-(bis(3-fluorophenyl)methyl)piperazine-1-carbonyl)-1-oxoisoindolin-2-yl)piperidine-2,6-dione], the IC50 was 500 to 1000 nM.

For the compound `O=C1CCC(N2Cc3cccc(C(=O)N4CCN(C(c5cccc(F)c5)c5cccc(F)c5)CC4)c3C2=O)C(=O)N1` (stereo not drawn) [GT-06150, 3-(7-(4-(bis(3-fluorophenyl)methyl)piperazine-1-carbonyl)-1-oxoisoindolin-2-yl)piperidine-2,6-dione], the concentration for half-maximal inhibition (IC50) is 500 to 1000 nM.

`O=C1CCC(N2Cc3cc(C4CCN(C(c5ccccc5)c5ccccc5)CC4)cc(F)c3C2=O)C(=O)N1` (stereo not drawn) [GT-06198, 3-(5-(1-benzhydrylpiperidin-4-yl)-7-fluoro-1-oxoisoindolin-2-yl)piperidine-2,6-dione] yielded a concentration for half-maximal inhibition (IC50) of less than 500 nM.

Regarding `O=C1CCC(N2Cc3cc(NC4CCC(N(c5ccccc5)c5ccccc5)CC4)ccc3C2=O)C(=O)N1` (stereo not drawn) [GT-06806, 3-(5-((4-(diphenylamino)cyclohexyl)amino)-1-oxoisoindolin-2-yl)piperidine-2,6-dione], the 50% inhibitory concentration (IC50) lay in the range of 1000 to 1900 nM.

The next experiment has as its target IKZF1 (Homo sapiens (Human), UniProt Q13422+Q96SW2). As to the kind of experiment: Western blot, substrate protein expression in hPBMC: IKZF1. Format: cell-based. Conditions: hPBMC, compound 500 nM, 24 hours, Western blot. How it is done:
(§1) The effect of the compounds of the present disclosure on the expression of target proteins in cells was detected using conventional Western blot analysis.
(§2) Human peripheral blood mononuclear cells (hPBMCs) at a density of 1×10^6 cells/mL were thawed according to the PBMC Recovery Protocol (Milecell Biotechnologies Inc, Shanghai). […] After 24 hours of compounds treatment, cells were harvested and lysed in RIPA protein lysate containing phosphatase inhibitors on ice for 30-60 min, followed by centrifugation. The supernatant was aspirated as the extracted total cell protein. The protein concentration of the supernatant was determined using the conventional BCA (Bicinchoninic Acid) assay. The supernatant was then mixed with 4× SDS sample loading buffer, denatured at 95° C. for 5 minutes, and then subjected to SDS-PAGE electrophoresis on a polyacrylamide gel. Proteins were then transferred to a nitrocellulose (NC) membrane, blocked at room temperature for 1-2 h, and processed for antibody incubation and detection according to the manufacturer's instructions (Cell Signaling Technology).
(§3) Half-Maximal Degradation Concentration value (the drug concentration required for degrading proteins by 50%, abbreviated as DC50) reads method: comparing the grayscale values of Western blot bands from drug-treated samples (protein degrader compounds) with those from blank (DMSO-treated) controls, and identifying the drug concentration range at which the grayscale value is half that of the DMSO-treated control bands.
(§4) DC50 values can be calculated using ImageJ software to measure grayscale values of Western blot bands from drug-treated samples. The relationship curve between drug concentration and grayscale values is fitted to estimate the drug concentration corresponding to half the grayscale value.
(§5) Target protein remaining (%) refers to the percentage of target protein remaining in hPBMC cells after treatment with protein degrader compounds.
(§6) Calculation method for protein remaining (%): Use ImageJ software to measure grayscale values of Western blot bands from drug (protein degrader)-treated samples. The grayscale value of drug-treated bands is divided by that of internal control protein bands, and the resulting quotient is normalized to obtain the relative percentage of remaining target protein after protein degrader treatment.
(§7) Target protein degradation rate (%)=100%-target protein remaining (%).
(A western blot detects proteins with antibodies after separation by electrophoresis.)
`O=C1CCC(N2Cc3c(ccc(CN4C5CC4CN(C(c4ccccc4)c4ccccc4)C5)c3F)C2=O)C(=O)N1` (stereo not drawn) [GT-03572, 3-(5-((3-benzhydryl-3,6-diazabicyclo[3.1.1]heptan-6-yl)methyl)-4-fluoro-1-oxoisoindolin-2-yl)piperidine-2,6-dione]: the “substrate protein remaining % IKZF1” value was “B (B represents substrate protein remaining % > 50%)”.

A further experiment deals with IKZF3 (Homo sapiens (Human), UniProt Q96SW2+Q9UKT9). As to the kind of experiment: Western blot, substrate protein expression in hPBMC: IKZF3. Format: cell-based. The following applies: hPBMC, compound 500 nM, 24 hours, Western blot. How it is done: as §1, §2, §3, §4, §5, §6, §7
Sequence of IKZF3 (Q9UKT9 whole entry): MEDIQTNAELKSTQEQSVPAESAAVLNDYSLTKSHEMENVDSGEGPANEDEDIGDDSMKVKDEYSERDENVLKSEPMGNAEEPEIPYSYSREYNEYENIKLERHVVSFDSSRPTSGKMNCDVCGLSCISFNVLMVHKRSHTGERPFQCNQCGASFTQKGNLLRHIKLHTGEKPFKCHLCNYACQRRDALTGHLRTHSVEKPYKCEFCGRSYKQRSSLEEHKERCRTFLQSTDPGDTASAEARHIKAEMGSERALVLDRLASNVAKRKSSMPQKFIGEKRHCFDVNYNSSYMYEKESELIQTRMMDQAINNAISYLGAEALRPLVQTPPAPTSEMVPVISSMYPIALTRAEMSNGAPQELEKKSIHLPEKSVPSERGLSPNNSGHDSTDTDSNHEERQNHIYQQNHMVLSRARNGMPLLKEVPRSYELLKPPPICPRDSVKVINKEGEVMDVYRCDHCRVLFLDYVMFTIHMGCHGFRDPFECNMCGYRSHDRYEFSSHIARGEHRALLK
Sequence of IKZF3 (Q96SW2 whole entry): as the sequence (Q96SW2 whole entry) above
Sequence of IKZF3 (Q16531 whole entry partner): as the sequence (Q16531 whole entry partner) above
Regarding `O=C1CCC(N2Cc3c(ccc(CN4C5CC4CN(C(c4ccccc4)c4ccccc4)C5)c3F)C2=O)C(=O)N1` (stereo not drawn) [GT-03572, 3-(5-((3-benzhydryl-3,6-diazabicyclo[3.1.1]heptan-6-yl)methyl)-4-fluoro-1-oxoisoindolin-2-yl)piperidine-2,6-dione], the “substrate protein remaining % IKZF3” value is reported as “A (A represents 0% ≤ substrate protein remaining % ≤ 50%)”.

In the next experiment the target is GSPT1 (Homo sapiens (Human), UniProt P15170+Q96SW2). Description: Western blot, substrate protein expression in hPBMC: GSPT1. The following applies: hPBMC, compound 500 nM, 24 hours, Western blot. Format: cell-based. How it is done: as §1, §2, §3, §4, §5, §6, §7
Sequence of GSPT1 (P15170 whole entry): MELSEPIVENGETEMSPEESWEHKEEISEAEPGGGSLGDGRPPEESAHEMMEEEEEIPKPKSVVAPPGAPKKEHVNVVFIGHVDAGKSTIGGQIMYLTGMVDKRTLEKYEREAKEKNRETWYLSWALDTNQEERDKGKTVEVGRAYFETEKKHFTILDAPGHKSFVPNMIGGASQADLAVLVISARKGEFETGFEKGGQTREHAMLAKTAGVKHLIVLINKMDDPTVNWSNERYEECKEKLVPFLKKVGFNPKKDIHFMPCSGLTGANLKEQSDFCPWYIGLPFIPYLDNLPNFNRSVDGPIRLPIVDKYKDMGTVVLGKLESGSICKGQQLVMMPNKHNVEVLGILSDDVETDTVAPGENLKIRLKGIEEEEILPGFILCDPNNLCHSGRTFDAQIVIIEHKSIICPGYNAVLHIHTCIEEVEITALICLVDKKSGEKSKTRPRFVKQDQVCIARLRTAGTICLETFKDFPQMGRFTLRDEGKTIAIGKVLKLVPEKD
Sequence of GSPT1 (Q96SW2 whole entry): as the sequence (Q96SW2 whole entry) above
Sequence of GSPT1 (Q16531 whole entry partner): as the sequence (Q16531 whole entry partner) above
Regarding `O=C1CCC(N2Cc3c(ccc(CN4C5CC4CN(C(c4ccccc4)c4ccccc4)C5)c3F)C2=O)C(=O)N1` (stereo not drawn) [GT-03572, 3-(5-((3-benzhydryl-3,6-diazabicyclo[3.1.1]heptan-6-yl)methyl)-4-fluoro-1-oxoisoindolin-2-yl)piperidine-2,6-dione], the “substrate protein remaining % GSPT1” value is “A (A represents 0% ≤ substrate protein remaining % ≤ 50%)”.
